Experimental data as given in patent US8383683B2, “Pharmaceutical use of substituted amides” (High Point Pharmaceuticals, LLC, priority 2007, dated 2013).

How the values were obtained:
[1] = target: T1, 11βHSD1 (Homo sapiens, UniProt P28845); assay: 11βHSD1 enzyme assay (SPA, 3H-cortisone to 3H-cortisol); type: biochemical; set-up: An extract of yeast transformed with h-11βHSD1 (Hutt et al., FEBS Lett., 441, 25 (1998)) was used as the source of enzyme; made in house; details: extract of yeast transformed with h-11βHSD1; 120 nM 3H-cortisone, 4 mM β-NADPH, 60 min at 30° C.
T1 sequence (P28845 whole entry): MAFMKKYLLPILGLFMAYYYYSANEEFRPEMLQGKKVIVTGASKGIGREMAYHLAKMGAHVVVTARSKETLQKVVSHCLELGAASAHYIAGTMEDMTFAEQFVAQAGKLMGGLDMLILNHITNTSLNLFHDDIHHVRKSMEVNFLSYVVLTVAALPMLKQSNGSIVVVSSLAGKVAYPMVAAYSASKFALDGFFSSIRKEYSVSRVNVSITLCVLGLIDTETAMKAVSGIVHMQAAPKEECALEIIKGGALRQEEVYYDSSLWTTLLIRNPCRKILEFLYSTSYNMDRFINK
Method: Pharmacological Methods 11βHSD1 Enzyme Assay Materials
^3H-cortisone and anti-rabbit Ig coated scintillation proximity assay (SPA) beads were purchased from Amersham Pharmacia Biotech, β-NADPH was from Sigma and rabbit anti-cortisol antibodies were from Fitzgerald. An extract of yeast transformed with h-11βHSD1 (Hutt et al., FEBS Lett., 441, 25 (1998)) was used as the source of enzyme. The test compounds were dissolved in DMSO (10 mM). All dilutions were performed in a buffer containing 50 mM TRIS-HCl (Sigma Chemical Co), 4 mM EDTA (Sigma Chemical Co), 0.1% BSA (Sigma Chemical Co), 0.01% Tween-20 (Sigma Chemical Co) and 0.005% bacitracin (Novo Nordisk NS), pH=7.4. Optiplate 96 wells plates were supplied by Packard. The amount of ^3H-cortisol bound to the SPA beads was measured on TopCount NXT, Packard.
h-11βHSD1, 120 nM ^3H-cortisone, 4 mM β-NADPH, antibody (1:200), serial dilutions of test compound and SPA particles (2 mg/well) were added to the wells. The reaction was initiated by mixing the different components and was allowed to proceed under shaking for 60 min at 30° C. The reaction was stopped be the addition of 10 fold excess of a stopping buffer containing 500 μM carbenoxolone and 1 μM cortisone. Data was analysed using GraphPad Prism software.

[2] = target: T1, 11βHSD1; set-up: host or cells: human volunteers and patients (in vivo); details: lean healthy volunteers and people with type 2 diabetes; cited from earlier work

Structure (SMILES)	IC50 [1] [nM]	insulin sensitivity [2]
O=C(CCCOc1ccc(Cl)cc1Cl)NC1CCC(CO)CC1 (stereo not shown) [Example 1-75, 4-(2,4-Dichloro-phenoxy)-N-(4-hydroxy-methyl-cyclohexyl)-butyramide]	27	
CN(C(=O)CCCOc1ccc(Cl)cc1Cl)C1CCC(C(N)=O)CC1 (stereo not shown) [Example 1-76, 4-{[4-(2,4-Dichloro-phenoxy)-butyryl]-methyl-amino}-cyclo-hexanecarboxylic acid amide]	18	
CN(C(=O)CCCOc1ccc(Cl)cc1Cl)C1CCC(C(C)(C)O)CC1 (stereo not shown) [Example 1-78, 4-(2,4-Dichloro-phenoxy)-N-[4-(1-hydroxy-1-methyl-ethyl)-cyclohexyl]-N-methyl-butyramide]	23	
CC(C)(O)C1CCC(NC(=O)CCCOc2ccc(Cl)cc2Cl)CC1 (stereo not shown) [Example 1-79, 4-(2,4-Dichloro-phenoxy)-N-[4-(1-hydroxy-1-methyl-ethyl)-cyclohexyl]-butyramide]	300	
CCOC(=O)C1CC2CC1CC2N(C)C(=O)CCCOc1ccc(Cl)cc1Cl (stereo not shown) [Example 1-80, 5-{[4-(2,4-Dichloro-phenoxy)-butyryl]-methyl-amino}-bicyclo[2.2.1]heptane-2-carboxylic acid ethyl ester]	700	
CC(C)(O)C12CC3CC(C1)C(NC(=O)CCCOc1ccc(Cl)cc1Cl)C(C3)C2 (stereo not shown) [Example 1-83, 4-(2,4-Dichloro-phenoxy)-N-[5-(1-hydroxy-1-methyl-ethyl)-adamantan-2-yl]-butyramide]	9	
CN(C(=O)CCCOc1ccc(Cl)cc1Cl)C1CC2CC1CC2CO (stereo not shown) [Example 1-84]	30	
O=C(CCCOc1ccccn1)NC1C2CC3CC1CC(O)(C3)C2 (stereo not shown) [Example 1-87, N-(5-Hydroxy-adamantan-2-yl)-4-(pyridin-2-yloxy)-butyramide]	227	
CC1(C)[C@@H](OC(=O)CCC(=O)O)CC[C@]2(C)[C@H]3C(=O)C=C4[C@@H]5C[C@@](C)(C(=O)O)CC[C@]5(C)CC[C@@]4(C)[C@]3(C)CC[C@@H]12 [carbenoxolone]		improves insulin sensitivity

Further lines, with some results ahead:

IC50 [1] [nM]	Structure (SMILES)	insulin sensitivity [2]
2	CC(C)(CCOc1ccc(Cl)cc1Cl)C(=O)NC1C2CC3CC1CC(O)(C3)C2 (stereo not shown) [Example 2-1, 4-(2,4-Dichloro-phenoxy)-N-(5-hydroxy-adamantan-2-yl)-2,2-dimethyl-butyramide]	
206	CC(C)(CCOc1ccc(Cl)cc1Cl)C(=O)N1C2CCC1CC(O)C2 (stereo not shown) [Example 2-3, 4-(2,4-Dichloro-phen-oxy)-1-(3-hydroxy-8-aza-bicyclo[3.2.1]oct-8-yl)-2,2-dimethyl-butan-1-one]	
3	CC(C)(CCOc1ccc(Cl)cc1Cl)C(=O)NC1C2CC3CC1CC(CO)(C3)C2 (stereo not shown) [Example 2-4, 4-(2,4-Dichloro-phen-oxy)-N-(5-hydroxy-methyl-adamantan-2-yl)-2,2-dimethyl-butyramide]	
4	O=C(NC1C2CC3CC1CC(O)(C3)C2)C1(CCOc2ccc(Cl)cc2Cl)CC1 (stereo not shown) [Example 2-5, 1-[2-(2,4-Dichloro-phen-oxy)-ethyl]-cyclo-pro-panecarboxylic acid (5-hydroxy-adamantan-2-yl)-amide]	
